# Experiments:
# [1] = biological target: T1, QcrB subunit of CIII2 (CIII2CIV2 supercomplex) (Mycolicibacterium smegmatis, UniProt A0R052); experiment: cryo-EM structure, […] Å; DCQ modeled in oxidized state at […] occupancy (shared with MQ); assay type: binding; design: gene MSMEG_4263; intact CIII2CIV2 supercomplex purified in GDN, C-terminally FLAG-tagged on QcrB; with QcrA (Rieske), QcrC and CIV subunits of the CIII2CIV2 supercomplex
# [2] = biological target: T1, QcrB subunit of CIII2 (CIII2CIV2 supercomplex); experiment: O2 reduction rate, Clark-type oxygen electrode; turnover […] s^−[…] at […]; assay type: biochemical; design: gene MSMEG_4263; intact purified CIII2CIV2 supercomplex, C-terminally FLAG-tagged on QcrB; with QcrA (Rieske), QcrC and CIV subunits of the CIII2CIV2 supercomplex
# cytochrome bd-I = biological target: T2, cytochrome bd-I (Mycolicibacterium smegmatis, UniProt A0QXA8); experiment: O2 reduction rate, Clark-type electrode; turnover at […]; assay type: biochemical
# T2 construct: gene MSMEG_3233; purified cytochrome bd-I (cydAB, Strep-tagged on CydB) in DDM; with CydB
# T2 sequence (A0QXA8 1-487): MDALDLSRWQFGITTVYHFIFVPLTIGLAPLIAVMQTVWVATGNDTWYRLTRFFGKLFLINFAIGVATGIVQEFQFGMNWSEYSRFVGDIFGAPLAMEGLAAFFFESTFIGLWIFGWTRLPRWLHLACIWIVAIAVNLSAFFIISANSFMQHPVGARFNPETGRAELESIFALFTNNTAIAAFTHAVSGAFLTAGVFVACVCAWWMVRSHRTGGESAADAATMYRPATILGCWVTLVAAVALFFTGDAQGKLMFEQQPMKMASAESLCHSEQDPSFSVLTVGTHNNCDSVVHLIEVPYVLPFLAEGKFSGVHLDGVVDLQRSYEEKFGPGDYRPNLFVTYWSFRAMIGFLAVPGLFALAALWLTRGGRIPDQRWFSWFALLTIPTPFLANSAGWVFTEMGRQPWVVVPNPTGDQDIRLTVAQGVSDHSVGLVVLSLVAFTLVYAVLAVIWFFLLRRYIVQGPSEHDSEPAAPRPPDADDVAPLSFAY
# T2 sequence (A0QXA7 1-350 partner): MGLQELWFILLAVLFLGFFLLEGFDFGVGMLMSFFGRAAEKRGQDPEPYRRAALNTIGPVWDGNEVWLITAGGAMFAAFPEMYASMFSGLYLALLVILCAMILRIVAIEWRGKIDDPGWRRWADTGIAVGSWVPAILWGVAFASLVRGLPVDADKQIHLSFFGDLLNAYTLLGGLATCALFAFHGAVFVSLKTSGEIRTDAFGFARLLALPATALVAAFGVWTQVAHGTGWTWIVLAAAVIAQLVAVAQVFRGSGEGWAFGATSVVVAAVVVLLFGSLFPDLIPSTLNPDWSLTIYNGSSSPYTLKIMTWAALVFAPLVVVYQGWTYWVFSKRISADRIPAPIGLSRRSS
# [3] = biological target: T1, QcrB subunit of CIII2 (CIII2CIV2 supercomplex); experiment: DMNQH2 oxidation:O2 reduction activity, Clark-type oxygen electrode; assay type: biochemical; design: gene MSMEG_4263; intact purified CIII2CIV2 supercomplex, C-terminally FLAG-tagged on QcrB; with QcrA (Rieske), QcrC and CIV subunits of the CIII2CIV2 supercomplex
# [4] = biological target: T3, QcrB subunit of CIII2 (CIII2CIV2 supercomplex), AAA variant (Mycolicibacterium smegmatis, UniProt A0R052, F153A/M305A/M337A); experiment: biochemical
# T3 construct: gene MSMEG_4263
smiles,measurement,setting,value
"CCCCCCCCCCC1=C(C)C(=O)C(OC)=C(OC)C1=O [DCQ, decylubiquinone]","cryo-EM structure, 2.5 Å; DCQ modeled in oxidized state at 50% occupancy (shared)",[1],"The DCQ density is seen in the more distal Qo1b position, i.e., the same as that of the native MQ"
Cc1c(C)c(O)c2ccccc2c1O [DMNQH2],"O2 reduction rate, Clark-type oxygen electrode; turnover 80 ± 10 s^-1 at 100 μM",[2],80 ± 10 s⁻¹
same,"O2 reduction rate, Clark-type electrode; turnover at 300 μM",cytochrome bd-I,18 ± 1 s⁻¹
CCCCCCCCCCc1c(C)c(O)c(OC)c(OC)c1O [DCQH2],IC50,[3],~70 µM
same,IC50,[4],~130 µM

# — PMC12789660, “Mycobacterial respiratory chain enzymes and growth are inhibited by decylubiquinone” (Communications Biology, 2025)
